# Tests used:
# Thromboxane A2 receptor = biological target: T1, Thromboxane A2 receptor (Homo sapiens, UniProt P21731); type: functional
# T1 sequence (P21731 whole entry): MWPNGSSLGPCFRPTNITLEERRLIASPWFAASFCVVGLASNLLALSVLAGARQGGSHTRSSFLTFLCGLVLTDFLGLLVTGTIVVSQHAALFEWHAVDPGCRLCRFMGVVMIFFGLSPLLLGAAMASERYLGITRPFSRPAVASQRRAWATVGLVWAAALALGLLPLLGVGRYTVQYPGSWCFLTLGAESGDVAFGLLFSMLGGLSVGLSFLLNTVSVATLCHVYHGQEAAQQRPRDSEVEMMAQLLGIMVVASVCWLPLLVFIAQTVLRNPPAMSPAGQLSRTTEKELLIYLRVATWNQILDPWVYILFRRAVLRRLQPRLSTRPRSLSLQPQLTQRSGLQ
# [1] = biological target: Vascular endothelial growth factor receptor 2 (Homo sapiens, UniProt P35968); type: functional
# [2] = biological target: Voltage-dependent L-type calcium channel subunit alpha-1C (Homo sapiens, UniProt Q13936); type: functional, cell-based
# [3] = biological target: T2, Muscarinic acetylcholine receptor M5 (Homo sapiens, UniProt P08912)
# T2 sequence (P08912 whole entry): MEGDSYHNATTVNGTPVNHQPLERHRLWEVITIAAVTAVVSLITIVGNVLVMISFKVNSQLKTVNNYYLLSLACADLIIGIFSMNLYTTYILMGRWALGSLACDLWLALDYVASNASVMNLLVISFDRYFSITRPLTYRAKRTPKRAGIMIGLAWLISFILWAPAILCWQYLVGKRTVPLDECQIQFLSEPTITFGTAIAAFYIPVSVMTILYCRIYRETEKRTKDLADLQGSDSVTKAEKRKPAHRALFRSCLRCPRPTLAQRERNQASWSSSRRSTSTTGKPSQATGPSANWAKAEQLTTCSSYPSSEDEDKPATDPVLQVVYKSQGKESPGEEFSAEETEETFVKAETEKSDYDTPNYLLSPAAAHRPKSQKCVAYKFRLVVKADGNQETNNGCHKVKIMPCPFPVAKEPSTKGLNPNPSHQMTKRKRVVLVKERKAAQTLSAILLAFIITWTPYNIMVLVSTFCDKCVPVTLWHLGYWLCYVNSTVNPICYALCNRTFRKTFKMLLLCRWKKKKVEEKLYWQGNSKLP
# [4] = biological target: Gamma-aminobutyric acid type B receptor subunit 1 (Homo sapiens, UniProt Q9UBS5)
# Androgen receptor = biological target: T3, Androgen receptor (Homo sapiens, UniProt P10275)
# T3 sequence (P10275 whole entry): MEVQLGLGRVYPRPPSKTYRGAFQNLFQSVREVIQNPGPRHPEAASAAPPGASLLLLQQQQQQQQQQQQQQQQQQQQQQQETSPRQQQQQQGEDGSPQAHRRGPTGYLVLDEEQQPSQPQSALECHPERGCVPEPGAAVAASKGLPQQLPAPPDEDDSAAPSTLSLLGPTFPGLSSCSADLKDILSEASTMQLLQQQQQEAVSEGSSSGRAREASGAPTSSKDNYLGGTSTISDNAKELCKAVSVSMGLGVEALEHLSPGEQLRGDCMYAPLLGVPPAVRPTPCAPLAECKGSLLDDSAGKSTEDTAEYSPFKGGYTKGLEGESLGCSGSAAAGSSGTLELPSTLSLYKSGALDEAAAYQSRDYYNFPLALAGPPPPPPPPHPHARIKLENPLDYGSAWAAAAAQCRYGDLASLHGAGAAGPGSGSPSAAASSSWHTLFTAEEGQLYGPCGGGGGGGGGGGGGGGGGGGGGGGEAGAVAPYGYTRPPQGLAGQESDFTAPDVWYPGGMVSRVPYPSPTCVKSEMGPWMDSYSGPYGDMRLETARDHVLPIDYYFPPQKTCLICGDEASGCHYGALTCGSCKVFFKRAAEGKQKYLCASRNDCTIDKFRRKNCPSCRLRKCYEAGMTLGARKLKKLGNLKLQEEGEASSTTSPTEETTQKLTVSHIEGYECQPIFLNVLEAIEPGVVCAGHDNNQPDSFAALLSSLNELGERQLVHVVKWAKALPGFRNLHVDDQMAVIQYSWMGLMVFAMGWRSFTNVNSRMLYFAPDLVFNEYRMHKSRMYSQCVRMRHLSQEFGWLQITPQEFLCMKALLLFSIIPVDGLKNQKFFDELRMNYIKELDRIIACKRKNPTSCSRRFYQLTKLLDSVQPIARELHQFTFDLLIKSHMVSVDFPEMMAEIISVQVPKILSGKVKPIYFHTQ
# [5] = biological target: T4, 5-hydroxytryptamine receptor 1A (Homo sapiens, UniProt P08908)
# T4 sequence (P08908 whole entry): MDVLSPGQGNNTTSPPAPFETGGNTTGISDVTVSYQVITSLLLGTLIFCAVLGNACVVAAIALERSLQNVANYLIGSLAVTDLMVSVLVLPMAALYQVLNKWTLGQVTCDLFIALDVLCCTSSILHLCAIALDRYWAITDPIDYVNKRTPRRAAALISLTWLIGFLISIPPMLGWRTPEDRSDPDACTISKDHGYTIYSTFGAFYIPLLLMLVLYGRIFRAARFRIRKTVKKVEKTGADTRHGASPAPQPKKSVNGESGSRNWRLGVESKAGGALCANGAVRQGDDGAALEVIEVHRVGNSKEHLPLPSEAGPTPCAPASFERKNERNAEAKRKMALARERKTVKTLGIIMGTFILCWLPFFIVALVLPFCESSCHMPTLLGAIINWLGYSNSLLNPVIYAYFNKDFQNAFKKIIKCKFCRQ
# Histamine H1 receptor = Histamine H1 receptor (Homo sapiens, UniProt P35367); type: functional, cell-based
# [6] = biological target: T5, Peroxisome proliferator-activated receptor alpha (Homo sapiens, UniProt Q07869); type: functional
# T5 sequence (Q07869 whole entry): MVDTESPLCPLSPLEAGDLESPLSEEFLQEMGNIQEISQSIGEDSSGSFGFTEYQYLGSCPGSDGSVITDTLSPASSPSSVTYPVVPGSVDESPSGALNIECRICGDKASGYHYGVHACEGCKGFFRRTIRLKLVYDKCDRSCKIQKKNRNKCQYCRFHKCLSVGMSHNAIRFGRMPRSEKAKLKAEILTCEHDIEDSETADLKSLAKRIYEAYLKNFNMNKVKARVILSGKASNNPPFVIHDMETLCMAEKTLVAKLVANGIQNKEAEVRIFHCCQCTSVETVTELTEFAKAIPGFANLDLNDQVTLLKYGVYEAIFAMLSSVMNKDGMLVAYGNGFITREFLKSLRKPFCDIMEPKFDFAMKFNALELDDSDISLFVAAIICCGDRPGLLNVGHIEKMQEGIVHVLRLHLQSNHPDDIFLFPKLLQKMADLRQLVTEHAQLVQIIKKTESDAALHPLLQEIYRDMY
# Note: assay procedure not described here.
# Gamma-aminobutyric acid type B receptor subunit 1, sequence (Q9UBS5 whole entry): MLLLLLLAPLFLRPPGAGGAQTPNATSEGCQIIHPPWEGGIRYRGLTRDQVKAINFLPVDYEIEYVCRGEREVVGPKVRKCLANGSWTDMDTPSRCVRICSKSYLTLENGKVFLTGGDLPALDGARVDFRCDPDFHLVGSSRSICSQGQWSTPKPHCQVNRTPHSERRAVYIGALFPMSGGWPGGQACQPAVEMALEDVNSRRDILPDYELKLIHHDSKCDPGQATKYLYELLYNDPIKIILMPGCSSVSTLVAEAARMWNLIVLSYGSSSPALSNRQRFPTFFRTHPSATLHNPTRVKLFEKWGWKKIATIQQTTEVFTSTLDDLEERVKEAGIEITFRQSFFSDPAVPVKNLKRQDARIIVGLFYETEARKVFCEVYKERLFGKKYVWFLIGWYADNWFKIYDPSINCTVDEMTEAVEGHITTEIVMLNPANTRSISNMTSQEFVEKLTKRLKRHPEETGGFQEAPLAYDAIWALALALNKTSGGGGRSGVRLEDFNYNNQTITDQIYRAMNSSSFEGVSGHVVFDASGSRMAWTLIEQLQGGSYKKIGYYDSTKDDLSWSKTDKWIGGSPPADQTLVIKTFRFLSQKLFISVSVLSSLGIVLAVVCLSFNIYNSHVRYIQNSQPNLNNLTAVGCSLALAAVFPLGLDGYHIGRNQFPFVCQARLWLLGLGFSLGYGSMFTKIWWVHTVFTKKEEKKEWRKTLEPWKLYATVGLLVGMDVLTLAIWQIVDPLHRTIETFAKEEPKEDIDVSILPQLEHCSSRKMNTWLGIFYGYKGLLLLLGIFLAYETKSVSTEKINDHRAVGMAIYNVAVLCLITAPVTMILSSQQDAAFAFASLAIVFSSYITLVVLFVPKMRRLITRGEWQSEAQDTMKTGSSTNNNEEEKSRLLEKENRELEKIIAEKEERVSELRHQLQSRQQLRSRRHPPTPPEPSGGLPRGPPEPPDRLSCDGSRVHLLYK
# Voltage-dependent L-type calcium channel subunit alpha-1C, sequence (Q13936 whole entry): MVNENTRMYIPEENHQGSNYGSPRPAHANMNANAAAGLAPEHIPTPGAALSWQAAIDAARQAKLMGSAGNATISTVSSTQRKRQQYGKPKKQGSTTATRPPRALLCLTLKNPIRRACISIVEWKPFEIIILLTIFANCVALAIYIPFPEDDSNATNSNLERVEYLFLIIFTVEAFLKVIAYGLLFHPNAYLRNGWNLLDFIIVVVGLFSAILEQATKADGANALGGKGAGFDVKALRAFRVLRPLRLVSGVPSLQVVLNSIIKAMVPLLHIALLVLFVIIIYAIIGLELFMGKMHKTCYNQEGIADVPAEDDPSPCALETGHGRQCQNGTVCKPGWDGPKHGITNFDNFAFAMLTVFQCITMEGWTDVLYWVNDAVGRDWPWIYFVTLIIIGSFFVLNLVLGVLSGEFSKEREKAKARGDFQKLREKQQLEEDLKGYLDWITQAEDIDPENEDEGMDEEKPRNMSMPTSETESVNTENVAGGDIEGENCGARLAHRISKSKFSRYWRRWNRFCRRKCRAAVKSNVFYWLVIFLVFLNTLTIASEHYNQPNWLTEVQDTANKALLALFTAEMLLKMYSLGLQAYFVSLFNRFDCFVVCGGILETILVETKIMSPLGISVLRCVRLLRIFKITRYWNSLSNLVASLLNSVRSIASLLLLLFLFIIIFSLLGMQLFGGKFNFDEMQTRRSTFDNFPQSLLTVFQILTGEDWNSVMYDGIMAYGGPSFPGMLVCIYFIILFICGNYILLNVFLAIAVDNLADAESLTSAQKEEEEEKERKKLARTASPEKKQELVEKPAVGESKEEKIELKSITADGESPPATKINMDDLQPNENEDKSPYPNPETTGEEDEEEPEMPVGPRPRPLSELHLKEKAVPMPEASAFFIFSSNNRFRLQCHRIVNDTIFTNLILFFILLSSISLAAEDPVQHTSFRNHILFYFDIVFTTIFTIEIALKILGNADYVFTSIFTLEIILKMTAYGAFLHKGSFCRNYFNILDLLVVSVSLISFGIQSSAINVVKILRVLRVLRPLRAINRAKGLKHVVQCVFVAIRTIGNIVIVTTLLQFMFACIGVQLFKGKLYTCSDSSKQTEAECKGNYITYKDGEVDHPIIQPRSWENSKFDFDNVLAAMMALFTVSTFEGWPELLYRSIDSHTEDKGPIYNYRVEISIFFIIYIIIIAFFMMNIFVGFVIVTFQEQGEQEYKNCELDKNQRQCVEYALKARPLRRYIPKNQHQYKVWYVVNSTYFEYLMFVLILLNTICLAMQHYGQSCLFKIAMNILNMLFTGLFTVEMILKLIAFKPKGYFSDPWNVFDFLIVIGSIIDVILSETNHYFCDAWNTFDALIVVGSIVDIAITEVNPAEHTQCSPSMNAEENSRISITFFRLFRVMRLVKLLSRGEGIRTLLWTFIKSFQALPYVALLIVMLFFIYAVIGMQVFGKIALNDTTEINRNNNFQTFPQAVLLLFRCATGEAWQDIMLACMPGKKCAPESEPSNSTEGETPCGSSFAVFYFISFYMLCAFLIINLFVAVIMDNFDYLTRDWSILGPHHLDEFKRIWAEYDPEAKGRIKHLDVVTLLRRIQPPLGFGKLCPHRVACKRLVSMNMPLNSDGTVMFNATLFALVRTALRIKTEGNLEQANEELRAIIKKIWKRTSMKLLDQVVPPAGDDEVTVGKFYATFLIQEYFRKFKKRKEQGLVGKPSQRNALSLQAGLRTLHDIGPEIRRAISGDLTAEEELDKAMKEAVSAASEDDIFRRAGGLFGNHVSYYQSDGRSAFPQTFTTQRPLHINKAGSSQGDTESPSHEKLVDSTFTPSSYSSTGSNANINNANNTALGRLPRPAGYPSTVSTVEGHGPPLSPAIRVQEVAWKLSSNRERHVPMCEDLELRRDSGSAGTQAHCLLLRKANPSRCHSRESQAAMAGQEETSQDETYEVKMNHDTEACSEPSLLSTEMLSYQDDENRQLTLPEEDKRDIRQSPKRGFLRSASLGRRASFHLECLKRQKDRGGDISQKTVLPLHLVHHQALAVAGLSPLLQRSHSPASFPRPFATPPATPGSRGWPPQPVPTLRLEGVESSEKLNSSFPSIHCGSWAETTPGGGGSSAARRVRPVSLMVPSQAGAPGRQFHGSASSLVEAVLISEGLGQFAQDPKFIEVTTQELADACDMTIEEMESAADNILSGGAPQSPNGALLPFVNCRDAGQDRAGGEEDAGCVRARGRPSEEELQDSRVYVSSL
# Histamine H1 receptor, sequence (P35367 whole entry): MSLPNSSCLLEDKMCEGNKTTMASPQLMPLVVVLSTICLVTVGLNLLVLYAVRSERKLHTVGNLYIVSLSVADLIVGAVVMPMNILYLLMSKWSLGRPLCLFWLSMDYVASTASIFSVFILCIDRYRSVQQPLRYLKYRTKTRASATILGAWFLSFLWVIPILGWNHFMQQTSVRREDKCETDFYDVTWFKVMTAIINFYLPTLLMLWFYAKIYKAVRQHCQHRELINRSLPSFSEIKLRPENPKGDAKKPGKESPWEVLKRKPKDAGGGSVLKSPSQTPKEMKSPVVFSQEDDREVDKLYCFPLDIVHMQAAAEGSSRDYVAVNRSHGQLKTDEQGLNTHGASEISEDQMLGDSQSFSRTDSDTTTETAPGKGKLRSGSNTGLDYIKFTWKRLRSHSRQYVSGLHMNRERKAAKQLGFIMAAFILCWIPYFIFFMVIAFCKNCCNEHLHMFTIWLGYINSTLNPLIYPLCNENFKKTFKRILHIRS
# Vascular endothelial growth factor receptor 2, sequence (P35968 whole entry): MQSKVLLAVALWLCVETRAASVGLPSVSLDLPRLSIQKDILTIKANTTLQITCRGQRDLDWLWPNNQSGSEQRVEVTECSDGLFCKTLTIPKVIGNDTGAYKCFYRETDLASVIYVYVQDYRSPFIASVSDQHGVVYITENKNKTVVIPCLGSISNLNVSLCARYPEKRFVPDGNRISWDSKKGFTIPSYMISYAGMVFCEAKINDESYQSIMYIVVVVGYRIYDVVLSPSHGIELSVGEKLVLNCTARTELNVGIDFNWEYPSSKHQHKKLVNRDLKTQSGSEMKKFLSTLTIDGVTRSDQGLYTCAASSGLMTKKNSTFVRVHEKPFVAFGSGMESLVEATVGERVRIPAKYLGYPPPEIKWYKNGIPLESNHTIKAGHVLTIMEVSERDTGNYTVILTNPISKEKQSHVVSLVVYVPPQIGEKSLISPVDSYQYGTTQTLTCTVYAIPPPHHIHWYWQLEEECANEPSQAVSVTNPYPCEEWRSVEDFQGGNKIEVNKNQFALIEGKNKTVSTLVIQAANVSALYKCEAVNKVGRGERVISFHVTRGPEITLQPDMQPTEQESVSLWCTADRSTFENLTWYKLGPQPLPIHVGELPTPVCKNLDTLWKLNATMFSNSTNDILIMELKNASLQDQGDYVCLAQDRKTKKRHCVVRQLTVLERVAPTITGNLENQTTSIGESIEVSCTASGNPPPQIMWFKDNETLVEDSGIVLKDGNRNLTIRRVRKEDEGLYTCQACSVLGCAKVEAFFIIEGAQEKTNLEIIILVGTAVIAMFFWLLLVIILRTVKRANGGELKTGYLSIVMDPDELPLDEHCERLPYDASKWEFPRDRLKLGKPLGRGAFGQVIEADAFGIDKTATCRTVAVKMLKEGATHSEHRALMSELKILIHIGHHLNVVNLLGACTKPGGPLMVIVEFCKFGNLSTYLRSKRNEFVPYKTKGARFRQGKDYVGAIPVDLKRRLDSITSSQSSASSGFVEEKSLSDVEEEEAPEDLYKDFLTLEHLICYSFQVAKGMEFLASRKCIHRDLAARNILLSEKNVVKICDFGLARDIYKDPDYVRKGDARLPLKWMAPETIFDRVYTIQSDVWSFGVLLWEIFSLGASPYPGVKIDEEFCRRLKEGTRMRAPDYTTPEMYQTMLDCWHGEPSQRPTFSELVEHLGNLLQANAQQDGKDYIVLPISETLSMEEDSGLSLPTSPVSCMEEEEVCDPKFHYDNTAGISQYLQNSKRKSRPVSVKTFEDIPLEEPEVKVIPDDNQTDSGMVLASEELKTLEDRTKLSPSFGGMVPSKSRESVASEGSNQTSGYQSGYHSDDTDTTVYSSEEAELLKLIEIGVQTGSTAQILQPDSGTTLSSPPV
structure (smiles),measurement,setting,value
CO/N=C(\C(=O)N[C@@H]1C(=O)N2C(C(=O)[O-])=C(C[N+]3(C)CCCC3)CS[C@H]12)c1csc(N)n1,AC50,Thromboxane A2 receptor,> 300 µM
same,AC50,[1],> 300 µM
COC(=O)N[C@H](C(=O)N1CCC[C@H]1c1nc(-c2ccc(-c3ccc(-c4c[nH]c([C@@H]5CCCN5C(=O)[C@@H](NC(=O)OC)C(C)C)n4)cc3)cc2)c[nH]1)C(C)C,AC50,[2],> 30 µM
CCOC(=O)[C@H](CCc1ccccc1)N[C@@H](C)C(=O)N1CCC[C@H]1C(=O)O,AC50,[3],> 10 µM
same,AC50,[4],> 10 µM
Nc1nc(N)c2nc(-c3ccccc3)c(N)nc2n1,AC50,Androgen receptor,> 30 µM
same,AC50,[3],> 10 µM
same,AC50,[4],> 10 µM
same,AC50,Thromboxane A2 receptor,> 30 µM
same,AC50,[1],> 30 µM
same,AC50,[5],> 30 µM
C[C@H]1O[C@H](O[C@H]2[C@H](O)[C@@H](O)[C@@H](O[C@H]3[C@H](O)[C@@H](O)C(O)O[C@@H]3CO)O[C@@H]2CO)[C@H](O)[C@@H](O)[C@@H]1N[C@H]1C=C(CO)[C@@H](O)[C@H](O)[C@H]1O (stereo partly specified) [ACARBOSE],AC50,[3],> 10 µM
same,AC50,[4],> 10 µM
Oc1ncnc2[nH]ncc12 [ALLOPURINOL],AC50,Thromboxane A2 receptor,> 30 µM
same,AC50,[1],> 30 µM
same,AC50,[5],> 30 µM
O=C1c2c(O)c(=O)ccn2N([C@@H]2c3ccccc3SCc3c2ccc(F)c3F)[C@@H]2COCCN12 [BALOXAVIR],AC50,Androgen receptor,> 30 µM
same,AC50,[2],> 50 µM
C(=N\NC1=NCCN1)/c1c2ccccc2c(/C=N/NC2=NCCN2)c2ccccc12 [BISANTRENE],AC50,Androgen receptor,> 30 µM
COc1cc(Nc2c(C#N)cnc3cc(OCCCN4CCN(C)CC4)c(OC)cc23)c(Cl)cc1Cl [BOSUTINIB],AC50,[3],12.1 µM
same,AC50,[4],> 10 µM
CCO/N=C(\C(=O)N[C@@H]1C(=O)N2C(C(=O)[O-])=C(Sc3nc(-c4cc[n+](C)cc4)cs3)CS[C@H]12)c1nsc(N)n1 [CEFTAROLINE],AC50,Androgen receptor,> 30 µM
COc1cc2c(cc1OC)C(=O)C(CC1CCN(Cc3ccccc3)CC1)C2 (stereo unspecified) [DONEPEZIL],AC50,Androgen receptor,> 30 µM
same,AC50,[3],15.4 µM
same,AC50,[4],> 10 µM
COC(=O)[C@@H]1CC2=CC(=O)CC[C@]2(C)[C@@]23O[C@@H]2C[C@@]2(C)[C@@H](CC[C@@]24CCC(=O)O4)[C@H]13 [EPLERENONE],AC50,Histamine H1 receptor,> 30 µM
same,AC50,[1],> 30 µM
C#C[C@]1(O)CC[C@H]2[C@@H]3CCc4cc(O)ccc4[C@H]3CC[C@@]21C [ETHINYL ESTRADIOL],AC50,[4],> 10 µM
same,AC50,[6],> 30 µM
NC(N)=Nc1nc(CSCCC(N)=NS(N)(=O)=O)cs1 [FAMOTIDINE],AC50,[3],> 10 µM
CCC(=O)c1c(O)cc(O)cc1O [FLOPROPIONE],AC50,Androgen receptor,> 30 µM
CC(C)C(=O)Nc1ccc([N+](=O)[O-])c(C(F)(F)F)c1 [FLUTAMIDE],AC50,Thromboxane A2 receptor,> 10 µM
same,AC50,[1],> 30 µM
same,AC50,[5],> 30 µM
COc1ccc2c(c1)C(=O)N(CCc1ccc(S(=O)(=O)NC(=O)NC3CCCCC3)cc1)C(=O)C2(C)C [GLIQUIDONE],AC50,[6],> 30 µM
NS(=O)(=O)c1cc2c(cc1Cl)NCNS2(=O)=O [HYDROCHLOROTHIAZIDE],AC50,[3],> 10 µM
same,AC50,[4],> 10 µM
CC(C)Cc1ccc(CC(=O)O)cc1 [IBUFENAC],AC50,Thromboxane A2 receptor,> 30 µM
same,AC50,[1],> 30 µM
CC(C)NNC(=O)c1ccncc1 [IPRONIAZID],AC50,Thromboxane A2 receptor,> 30 µM
same,AC50,[1],> 30 µM
Cc1cccc(C)c1OCC(C)N (stereo unspecified) [MEXILETINE],AC50,[2],> 50 µM
CCc1nn(CCCN2CCN(c3cccc(Cl)c3)CC2)c(=O)n1CCOc1ccccc1 [NEFAZODONE],AC50,[4],> 10 µM
CCc1ccc(CCOc2ccc(CC3SC(=O)NC3=O)cc2)nc1 (stereo unspecified) [PIOGLITAZONE],AC50,[4],> 10 µM
CC(C(=O)O)c1ccc(N2CC=CC2)c(Cl)c1 (stereo unspecified) [PIRPROFEN],AC50,Androgen receptor,> 30 µM
same,AC50,Histamine H1 receptor,> 30 µM
NC(=O)c1cnccn1 [PYRAZINAMIDE],AC50,Thromboxane A2 receptor,> 30 µM
same,AC50,[1],> 30 µM
same,AC50,[5],> 30 µM
O=C(NC[C@H]1CN(c2ccc(N3CCOCC3=O)cc2)C(=O)O1)c1ccc(Cl)s1 [RIVAROXABAN],AC50,[6],> 30 µM
CC(C)OC(=O)[C@H](C)N[P@](=O)(OC[C@H]1O[C@@H](n2ccc(=O)[nH]c2=O)[C@](C)(F)[C@@H]1O)Oc1ccccc1 [SOFOSBUVIR],AC50,Androgen receptor,> 30 µM
same,AC50,[2],> 50 µM
CS(=O)(=O)c1ccc([C@@H](O)[C@@H](CO)NC(=O)C(Cl)Cl)cc1 [THIAMPHENICOL],AC50,[2],> 50 µM
Cc1ccc(O)c2ncccc12 [TILIQUINOL],AC50,Androgen receptor,> 30 µM
CC(=O)OC[C@H]1O[C@@H](n2ccc(=O)[nH]c2=O)[C@H](OC(C)=O)[C@@H]1OC(C)=O [URIDINE TRIACETATE],AC50,Androgen receptor,> 30 µM
CCCS(=O)(=O)Nc1ccc(F)c(C(=O)c2c[nH]c3ncc(-c4ccc(Cl)cc4)cc23)c1F [VEMURAFENIB],AC50,[2],> 30 µM
CCOC(=O)N[C@@H]1CC[C@@H]2[C@@H](C1)C[C@H]1C(=O)O[C@H](C)[C@H]1[C@H]2/C=C/c1ccc(-c2cccc(F)c2)cn1 [VORAPAXAR],AC50,Androgen receptor,> 30 µM
same,AC50,[2],> 50 µM
O=C(CCCCCCC(=O)Nc1ccccc1)NO [VORINOSTAT],AC50,[3],> 10 µM
same,AC50,[4],> 10 µM
same,AC50,Histamine H1 receptor,> 30 µM

# From ChEMBL document CHEMBL5291721, “A preclinical secondary pharmacology resource illuminates target-adverse drug reaction associations of marketed drugs” (Nat Commun, 2023)
